Like-named read-outs stand apart in the source and are kept apart here.
Molecular target: T1, GLP-1R (Homo sapiens, UniProt P43220)
T1 construct: host or cells: GLP-1R CRE-bla CHO-K1 cells
Test: EC20 GLP-1(9-36) PAM cAMP assay: dose response of compound in the presence of fixed concentration of GLP-1(9-36)
Type: cell-based
Conditions: GLP-1R CRE-bla CHO-K1 cells, read-out: EC20 GLP-1(9-36) PAM EC50
Method in brief: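 GLP-1R CRE-bla CHO-K1 cells treated 30 min at 37 °C with 12-point compound dose response plus fixed EC20 GLP-1(9-36), with IBMX, in HBSS/HEPES/0.1% BSA pH 7.4. Total cAMP measured by luminescent detection against standard curve; EC50 and Emax from non-linear regression.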

[1] = dose response of compound in presence of fixed concentration of GLP-1(9-36)
[2] = compound dose response with fixed concentration of GLP-1(9-36)

T1 sequence (P43220 24-463): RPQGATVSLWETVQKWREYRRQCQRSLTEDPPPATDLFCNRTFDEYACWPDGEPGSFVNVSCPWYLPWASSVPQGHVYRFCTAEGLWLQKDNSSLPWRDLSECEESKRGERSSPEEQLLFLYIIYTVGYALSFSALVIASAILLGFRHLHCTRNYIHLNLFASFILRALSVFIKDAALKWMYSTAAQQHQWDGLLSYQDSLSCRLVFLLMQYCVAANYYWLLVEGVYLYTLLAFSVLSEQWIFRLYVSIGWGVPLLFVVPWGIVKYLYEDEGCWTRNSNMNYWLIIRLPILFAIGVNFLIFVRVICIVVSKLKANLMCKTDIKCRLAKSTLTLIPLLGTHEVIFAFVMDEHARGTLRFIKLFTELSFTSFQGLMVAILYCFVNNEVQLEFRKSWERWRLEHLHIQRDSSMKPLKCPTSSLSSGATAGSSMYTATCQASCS
T1 sequence (P01275 100-127 partner limits assumed): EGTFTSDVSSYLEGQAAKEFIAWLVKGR

| Structure (SMILES) | EC50 [1] | EC50 [2] |
| --- | --- | --- |
| CCCCCCCOc1ccc(-c2cnc(-c3ccc(C[C@H](NC(=O)c4ccc(C(C)(C)C)cc4)C(=O)N[C@@H](CC(=O)NS(C)(=O)=O)C(=O)O)cc3)nc2)cc1 [Compound 511] | 0.8 to 2.5 µM | – |
| CC(C)(C)c1ccc(C(=O)N[C@@H](Cc2ccc(-c3ncc(-c4ccc(OC5CCCC5)cc4)cn3)cc2)C(=O)NCCC(=O)O)cc1 [Compound 688] | 2.5 to 5 µM | – |
| CC(C)(C)c1ccc(C(=O)N[C@@H](Cc2ccc(-c3ncc(-c4ccc(OCC5CC5)cc4)cn3)cc2)C(=O)N2CC(C(=O)O)C2)s1 [Compound 781] | 2.5 to 5 µM | – |
| CCC[C@H]1CC[C@H](C2CCN(c3cnc(-c4ccc(C[C@H](NC(=O)c5ccn(C(C)(C)C)c5)C(=O)N5CC(C(=O)O)C5)cc4)nc3)CC2)CC1 [Compound 1532] | – | < 0.8 µM |
| CCCCCCCOc1ccc(-c2cnc(-c3ccc(C[C@H](NC(=O)c4ccc(C(C)(C)C)cc4)C(=O)N[C@H](C(=O)O)C(C)(C)C)cc3)nc2)cc1 [Compound 546] | 0.8 to 2.5 µM | – |
| CCCCCCCOc1ccc(-c2cnc(-c3ccc(C[C@H](NC(=O)c4ccc(C(C)(C)C)s4)C(=O)NC4(C(=O)O)CC(F)(F)C4)cc3)nc2)cc1 [Compound 876] | 0.8 to 2.5 µM | – |
| CCCCCCCOc1ccc(-c2cnc(-c3ccc(C[C@H](NC(=O)c4ccc(C(C)(C)C)s4)C(=O)N[C@@H](CCN)C(=O)O)cc3)nc2)cc1 [Compound 410, (S)-4-amino-2-((S)-2-(5-(tert-butyl)thiophene-2-carboxamido)-3-(4-(5-(4-(heptyloxy)phenyl)pyrimidin-2-yl)phenyl)propanamido)butanoic acid] | 0.8 to 2.5 µM | – |
| CCCCCCCOc1ccc(-c2cnc(-c3ccc(C[C@H](NC(=O)c4ccc(C(C)(C)C)cc4)C(=O)NC(Cc4ccc(OC)cc4)C(=O)O)cc3)nc2)cc1 (stereo partly drawn) [Compound 568] | < 0.8 µM | – |
| CCCCCCCOc1ccc(-c2cnc(-c3ccc(C[C@H](NC(=O)c4ccc(C(C)(C)C)s4)C(=O)NC(C(=O)O)C(O)c4ccc(S(C)(=O)=O)cc4)cc3)nc2)cc1 (stereo partly drawn) [Compound 655] | 0.8 to 2.5 µM | – |
| Cc1ccc(-c2ccc(-c3ccc(-c4cnc(-c5ccc(C[C@H](NC(=O)c6ccc(C(C)(C)C)s6)C(=O)N6CC(C(=O)O)C6)cc5)nc4)c(F)c3)cc2)cc1 [Compound 1214] | – | 2.5 to 5 µM |
| CCCCCCCOc1ccc(-c2nnc(-c3ccc(C[C@H](NC(=O)c4ccc(C(C)(C)C)cc4)C(=O)N[C@H](C)C(=O)O)cc3)s2)cc1 [Compound 802] | 2.5 to 5 µM | – |
| CCC[C@H]1CC[C@H](C2CCN(c3cnc(-c4ccc(C[C@H](NC(=O)c5ccc(C(C)(C)C)s5)C(=O)N[C@H](CC(C)C)C(=O)O)cc4)nc3)CC2)CC1 [Compound 1462] | – | 0.8 to 2.5 µM |
| CC[C@H]1CC[C@H](c2ccc(-c3ccc(-c4ccc(C[C@H](NC(=O)c5ccc(C(C)(C)C)s5)C(=O)N5CC(C(=O)O)C5)cc4)nc3)cc2)CC1 [Compound 1334] | – | < 0.8 µM |
| CC(C)(C)c1ccc(C(=O)N[C@@H](Cc2ccc(-c3ncc(-c4ccc(-c5ccc(OC(F)(F)F)cc5)cc4F)cn3)cc2)C(=O)O)s1 [Compound 1365] | – | < 0.8 µM |
| CCCCCCCOc1ccc(-c2cnc(-c3ccc(C[C@H](NC(=O)c4ccc(C(C)(C)C)s4)C(=O)NC(C(=O)O)C(O)C4CCCCC4)cc3)nc2)cc1 (stereo partly drawn) [Compound 914] | 2.5 to 5 µM | – |
